# Like-named read-outs stand apart in the source and are kept apart here.
# How the values were obtained:
# [1] = tested on: Plasmodium berghei (Pb-Luc) exoerythrocytic-stage parasites; conditions: for normalized signal at concentration 10 / normalized signal at concentration 0.000508053 / normalized signal at concentration 0.00152416 / normalized signal at concentration 0.00457247 / normalized signal at concentration 0.0137174 / normalized signal at concentration 0.0411523 / normalized signal at concentration 0.123457 / normalized signal at concentration 0.37037 / normalized signal at concentration 1.11111 / normalized signal at concentration 3.33333: fraction of control; for IC50: read-out: PbLuc_IC50, Broad compounds; for normalised signal at concentration 10 (first series): concentration 10, first series of dose columns; for normalised signal at concentration 10 (second series): concentration 10, second series of dose columns
# HepG2-A16-CD81EGFP cells = conditions: for IC50: read-out: Tox_IC50, HepG2 cytotoxicity
# [2] = first series of dose-response columns
# [3] = second series of dose-response columns
# [4] = sheet 2nd round, maximal inhibition in dose response
# [5] = sheet "2nd round", dose response top concentration 10
structure (smiles),measurement,setting,value
COc1ccc(NC(=O)N(C)C[C@H]2Oc3ccc(NC(=O)CCN4CCOCC4)cc3C(=O)N([C@H](C)CO)C[C@@H]2C)cc1 [BRD-K36853881-001-02-5],normalized signal at concentration 10,[1]; [2],0.82
same,normalized signal at concentration 0.000508053,[1]; first series,0.84
same,normalized signal at concentration 0.00152416,[1]; first series,0.86
same,normalized signal at concentration 0.00457247,[1]; first series,0.85
same,normalized signal at concentration 0.0137174,[1]; first series,0.75
same,normalized signal at concentration 0.0411523,[1]; first series,0.91
same,normalized signal at concentration 0.123457,[1]; first series,0.88
same,normalized signal at concentration 0.37037,[1]; first series,0.86
same,normalized signal at concentration 1.11111,[1]; first series,0.92
same,normalized signal at concentration 3.33333,[1]; first series,0.69
same,IC50,"[1]; sheet 2nd round, dose response",> 10 µM
same,normalized signal at concentration 10,[1]; [3],0.77
same,normalized signal at concentration 0.000508053,[1]; second series,1.01
same,normalized signal at concentration 0.00152416,[1]; second series,0.81
same,normalized signal at concentration 0.00457247,[1]; second series,0.82
same,normalized signal at concentration 0.0137174,[1]; second series,0.71
same,normalized signal at concentration 0.0411523,[1]; second series,0.92
same,normalized signal at concentration 0.123457,[1]; second series,0.81
same,normalized signal at concentration 0.37037,[1]; second series,0.84
same,normalized signal at concentration 1.11111,[1]; second series,0.84
same,normalized signal at concentration 3.33333,[1]; second series,0.84
same,PbLuc_max_inhibition (%),[1]; [4],31%
same,IC50,HepG2-A16-CD81EGFP cells; sheet 2nd round,> 10 µM
same,Tox_max_inhibition (%),HepG2-A16-CD81EGFP cells; [4],9%
C[C@H]1CCCCO[C@H](CN(C)S(=O)(=O)c2ccc(F)cc2)[C@@H](C)CN([C@@H](C)CO)C(=O)c2cc(N(C)C)ccc2O1 [BRD-K38571893-001-01-9],normalized signal at concentration 10,[1]; [2],0.89
same,normalized signal at concentration 0.000508053,[1]; first series,0.97
same,normalized signal at concentration 0.00152416,[1]; first series,0.98
same,normalized signal at concentration 0.00457247,[1]; first series,0.90
same,normalized signal at concentration 0.0137174,[1]; first series,0.78
same,normalized signal at concentration 0.0411523,[1]; first series,1.07
same,normalized signal at concentration 0.123457,[1]; first series,1.18
same,normalized signal at concentration 0.37037,[1]; first series,0.95
same,normalized signal at concentration 1.11111,[1]; first series,0.97
same,normalized signal at concentration 3.33333,[1]; first series,0.87
same,IC50,"[1]; sheet 2nd round, dose response",> 10 µM
same,normalized signal at concentration 10,[1]; [3],0.80
same,normalized signal at concentration 0.000508053,[1]; second series,1.11
same,normalized signal at concentration 0.00152416,[1]; second series,0.83
same,normalized signal at concentration 0.00457247,[1]; second series,0.98
same,normalized signal at concentration 0.0137174,[1]; second series,1.18
same,normalized signal at concentration 0.0411523,[1]; second series,1.02
same,normalized signal at concentration 0.123457,[1]; second series,1.25
same,normalized signal at concentration 0.37037,[1]; second series,0.98
same,normalized signal at concentration 1.11111,[1]; second series,1.04
same,normalized signal at concentration 3.33333,[1]; second series,0.97
same,PbLuc_max_inhibition (%),[1]; [4],22%
same,IC50,HepG2-A16-CD81EGFP cells; sheet 2nd round,> 10 µM
same,Tox_max_inhibition (%),HepG2-A16-CD81EGFP cells; [4],-2.16%
C[C@@H]1CN([C@@H](C)CO)C(=O)c2cccc(NC(=O)c3ccc(-c4nccs4)cc3)c2O[C@@H]1CN(C)C(=O)Nc1ccc(C(F)(F)F)cc1 [BRD-K43504903-001-01-1],normalised signal at concentration 0.000508053 (first series),[1],0.8756
same,normalised signal at concentration 0.000508053 (second series),[1],0.7942
same,normalised signal at concentration 0.00152416 (first series),[1],0.8514
same,normalised signal at concentration 0.00152416 (second series),[1],0.7934
same,normalised signal at concentration 0.00457247 (first series),[1],0.8815
same,normalised signal at concentration 0.00457247 (second series),[1],0.6886
same,normalised signal at concentration 0.0137174 (first series),[1],0.7217
same,normalised signal at concentration 0.0137174 (second series),[1],0.708
same,normalised signal at concentration 0.0411523 (first series),[1],0.6989
same,normalised signal at concentration 0.0411523 (second series),[1],0.7835
same,normalised signal at concentration 0.123457 (first series),[1],0.7701
same,normalised signal at concentration 0.123457 (second series),[1],0.8493
same,normalised signal at concentration 0.37037 (first series),[1],0.9239
same,normalised signal at concentration 0.37037 (second series),[1],0.7292
same,normalised signal at concentration 1.11111 (first series),[1],0.7039
same,normalised signal at concentration 1.11111 (second series),[1],0.8779
same,normalised signal at concentration 3.33333 (first series),[1],0.8563
same,normalised signal at concentration 3.33333 (second series),[1],1.012
same,normalised signal at concentration 10 (first series),[1],0.4042
same,normalised signal at concentration 10 (second series),[1],0.5157
same,IC50,[1]; [5],> 10 µM
same,PbLuc_max_inhibition (%),"[1]; sheet ""2nd round""",60%
same,IC50,"HepG2-A16-CD81EGFP cells; sheet ""2nd round""",> 10 µM
same,Tox_max_inhibition (%),"HepG2-A16-CD81EGFP cells; sheet ""2nd round""",21%
C[C@@H]1CCCCO[C@@H](CN(C)S(=O)(=O)c2ccc(F)cc2)[C@H](C)CN([C@@H](C)CO)C(=O)c2cc(N(C)C)ccc2O1 [BRD-K44445002-001-01-6],normalised signal at concentration 0.000508053 (first series),[1],0.8297
same,normalised signal at concentration 0.000508053 (second series),[1],0.9522
same,normalised signal at concentration 0.00152416 (first series),[1],0.9815
same,normalised signal at concentration 0.00152416 (second series),[1],1.174
same,normalised signal at concentration 0.00457247 (first series),[1],0.6933
same,normalised signal at concentration 0.00457247 (second series),[1],0.8769
same,normalised signal at concentration 0.0137174 (first series),[1],0.8541
same,normalised signal at concentration 0.0137174 (second series),[1],1.037
same,normalised signal at concentration 0.0411523 (first series),[1],1.012
same,normalised signal at concentration 0.0411523 (second series),[1],1.038
same,normalised signal at concentration 0.123457 (first series),[1],1.095
same,normalised signal at concentration 0.123457 (second series),[1],0.8137
same,normalised signal at concentration 0.37037 (first series),[1],0.8834
same,normalised signal at concentration 0.37037 (second series),[1],0.9753
same,normalised signal at concentration 1.11111 (first series),[1],1.034
same,normalised signal at concentration 1.11111 (second series),[1],0.8748
same,normalised signal at concentration 3.33333 (first series),[1],0.858
same,normalised signal at concentration 3.33333 (second series),[1],0.7361
same,normalised signal at concentration 10 (first series),[1],0.7308
same,normalised signal at concentration 10 (second series),[1],0.7674
same,IC50,[1]; [5],> 10 µM
same,PbLuc_max_inhibition (%),"[1]; sheet ""2nd round""",31%
same,IC50,"HepG2-A16-CD81EGFP cells; sheet ""2nd round""",> 10 µM
same,Tox_max_inhibition (%),"HepG2-A16-CD81EGFP cells; sheet ""2nd round""",2%
C[C@@H]1CCCCO[C@@H](CN(C)S(=O)(=O)c2ccc(F)cc2)[C@@H](C)CN([C@H](C)CO)C(=O)c2cc(N(C)C)ccc2O1 [BRD-K46014293-001-01-6],normalized signal at concentration 10,[1]; [2],1.08
same,normalized signal at concentration 0.000508053,[1]; first series,0.75
same,normalized signal at concentration 0.00152416,[1]; first series,0.85
same,normalized signal at concentration 0.00457247,[1]; first series,0.95
same,normalized signal at concentration 0.0137174,[1]; first series,0.77
same,normalized signal at concentration 0.0411523,[1]; first series,0.97
same,normalized signal at concentration 0.123457,[1]; first series,1.05
same,normalized signal at concentration 0.37037,[1]; first series,1.10
same,normalized signal at concentration 1.11111,[1]; first series,1.01
same,normalized signal at concentration 3.33333,[1]; first series,0.87
same,IC50,"[1]; sheet 2nd round, dose response",> 10 µM
same,normalized signal at concentration 10,[1]; [3],0.93
same,normalized signal at concentration 0.000508053,[1]; second series,1.07
same,normalized signal at concentration 0.00152416,[1]; second series,0.98
same,normalized signal at concentration 0.00457247,[1]; second series,0.95
same,normalized signal at concentration 0.0137174,[1]; second series,0.98
same,normalized signal at concentration 0.0411523,[1]; second series,0.94
same,normalized signal at concentration 0.123457,[1]; second series,1.10
same,normalized signal at concentration 0.37037,[1]; second series,1.03
same,normalized signal at concentration 1.11111,[1]; second series,0.83
same,normalized signal at concentration 3.33333,[1]; second series,0.91
same,PbLuc_max_inhibition (%),[1]; [4],25%
same,IC50,HepG2-A16-CD81EGFP cells; sheet 2nd round,> 10 µM
same,Tox_max_inhibition (%),HepG2-A16-CD81EGFP cells; [4],15%

# From publication PMC4890880 (ACS infectious diseases, 2016)
